What is called IC50 is the midpoint of a concentration-inhibition curve. The term pKa denotes the negative logarithm of the acid dissociation constant. A lower pKa goes with a group that gives up its proton readily. For orientation: logD means lipophilicity at a set pH, counting ionised and neutral species. Lower therefore signals lower lipophilicity. By half-life is commonly meant the time in which the quantity being followed falls by half. Higher therefore signals slow loss.

Consider 33 compounds from ChEMBL document CHEMBL1155936, “Allosteric FBPase inhibitors gain 10(5) times in potency when simultaneously binding two neighboring AMP sites” (Bioorg Med Chem Lett, 2008).

Bounds are passed on as bounds.

Data set [1] deals with T1, Fructose-1,6-bisphosphatase 1 (Homo sapiens, UniProt P09467).
T1 sequence (P09467 whole entry): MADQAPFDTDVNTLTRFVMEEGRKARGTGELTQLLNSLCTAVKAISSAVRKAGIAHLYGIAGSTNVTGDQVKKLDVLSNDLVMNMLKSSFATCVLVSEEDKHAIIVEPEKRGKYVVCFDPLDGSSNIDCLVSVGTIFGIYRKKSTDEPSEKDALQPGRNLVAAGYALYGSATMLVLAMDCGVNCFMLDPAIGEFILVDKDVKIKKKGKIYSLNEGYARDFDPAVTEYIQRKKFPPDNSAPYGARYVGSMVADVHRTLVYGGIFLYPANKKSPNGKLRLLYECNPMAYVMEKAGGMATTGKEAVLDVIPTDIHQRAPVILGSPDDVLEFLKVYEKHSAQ
The experiment in a line: Inhibition of human liver fructose-1,6-bisphosphatase.

Data set [2] addresses T1, Fructose-1,6-bisphosphatase 1. The experiment in a line: Inhibition of human liver fructose-1,6-bisphosphatase in presence of fructose-2,6-bisphosphate.
Data set [3] is described as follows: Dissociation constant, pKa of the compound. In kind it is physicochemical.
Data set [4] can be described thus: Lipophilicity, Log D at pH 7.4. In kind it is physicochemical. The settings on record: buffer.
Data set [5] can be described thus: Bioavailability in mouse at 10 mg/kg, po. In kind it is ADME, organism-based. Conditions: in vivo.
Data set [6] can be described thus: Half life in mouse at 10 mg/kg, po. In kind it is ADME, organism-based. Also noted: dose 10 mg/kg, route oral. The settings on record: in vivo.
A short description of data set [7]: Bioavailability in mouse at 9.68 mg/kg, po. In kind it is ADME, organism-based. Conditions: in vivo.
Data set [8] in a line: Half life in mouse at 9.68 mg/kg, po. The format is ADME, organism-based. Conditions: in vivo. Also noted: dose 9.68 mg/kg, route oral.

In the case of `Cc1cccc(S(=O)(=O)NC(=O)NCCNC(=O)NS(=O)(=O)c2cccc(C)c2)c1`, the IC50 in data set [1] and in data set [2] was > 100 µM throughout.

For `Cc1cccc(S(=O)(=O)NC(=O)NCc2cccc(CNC(=O)NS(=O)(=O)c3cccc(C)c3)c2)c1`, the IC50 in data set [1] turned out to be 0.012 µM; in data set [2], 0.006 µM.

Take `Cc1cccc(S(=O)(=O)NC(=O)NCCSCCNC(=O)NS(=O)(=O)c2cccc(C)c2)c1`: the IC50 in data set [1] was 0.07 µM; in data set [2] it was 0.018 µM.

In the case of `Cc1cccc(S(=O)(=O)NC(=O)NCC/C=C/CCNC(=O)NS(=O)(=O)c2cccc(C)c2)c1`, the IC50 turned out to be 0.068 µM in data set [1] and 0.028 µM in data set [2].

On to `Cc1cccc(S(=O)(=O)NC(=O)NCCNCCNC(=O)NS(=O)(=O)c2cccc(C)c2)c1`, for which the IC50 in data set [1] and in data set [2] was > 100 µM throughout.

For `O=C(NCC/C=C/CCNC(=O)NS(=O)(=O)c1cccc(Cl)c1)NS(=O)(=O)c1cccc(Cl)c1`, the figures for the IC50 in data set [1] and in data set [2] were 0.04 µM and 0.014 µM, respectively.

Take `O=C(NCCCCCCCCNC(=O)NS(=O)(=O)c1cccc(Cl)c1)NS(=O)(=O)c1cccc(Cl)c1`: the IC50 stood at 0.045 µM in data set [1] and 0.017 µM in data set [2].

On to `CCCCNC(=O)NS(=O)(=O)c1cccc(Cl)c1`, for which the values for the IC50 in data set [1] and in data set [2] were 196 µM and 134 µM, respectively.

Take `CCCCNC(=O)NS(=O)(=O)c1cccc(C)c1`: the concentration for half-maximal inhibition (IC50) in data set [1] is 178 µM; in data set [2], 86.8 µM.

Regarding `O=C(NCCCCCCCNC(=O)NS(=O)(=O)c1cccc(Cl)c1)NS(=O)(=O)c1cccc(Cl)c1`, the IC50 in data set [2] is 0.004 µM. Moreover, the pKa in data set [3] was determined as 5.12. Also, the logD in data set [4] was -0.43.

`Cc1cccc(S(=O)(=O)NC(=O)NCCCNC(=O)NS(=O)(=O)c2cccc(C)c2)c1`: the IC50 is > 100 µM in data set [1] and 38.5 µM in data set [2].

For `O=C(NCCCCCNC(=O)NS(=O)(=O)c1cccc(Cl)c1)NS(=O)(=O)c1cccc(Cl)c1`, the IC50 in data set [1] was 0.05 µM; in data set [2], 0.019 µM.

Turning to `Cc1cccc(S(=O)(=O)NC(=O)NCCCCCNC(=O)NS(=O)(=O)c2cccc(C)c2)c1`, the IC50 in data set [1] is 0.072 µM; in data set [2], 0.022 µM.

As to `O=C(NCCCCNC(=O)NS(=O)(=O)c1cccc(Cl)c1)NS(=O)(=O)c1cccc(Cl)c1`, the IC50 was 2.75 µM in data set [1] and 0.264 µM in data set [2].

As to `Cc1cccc(S(=O)(=O)NC(=O)NCCCCCCCCNC(=O)NS(=O)(=O)c2cccc(C)c2)c1`, the IC50 in data set [1] turned out to be 0.035 µM; in data set [2] it was 0.008 µM.

Regarding `Cc1cccc(S(=O)(=O)NC(=O)NCCS)c1`, the IC50 in data set [1] amounted to 20.5 µM; in data set [2] it was 10.6 µM.

Turning to `CCCNC(=O)NS(=O)(=O)c1cccc(Cl)c1`, the IC50 in data set [1] worked out at 690 µM; in data set [2], 234 µM.

Turning to `Nc1ccc(S(=O)(=O)NC(=O)NCCS)cc1`, the IC50 in data set [1] worked out at 1.6 µM.

For `O=C(NCCSSCCNC(=O)NS(=O)(=O)c1cccc(Cl)c1)NS(=O)(=O)c1cccc(Cl)c1`, the results for the IC50 in data set [1] and in data set [2] were 0.055 µM and 0.01 µM, respectively.

In the case of `Cc1cccc(S(=O)(=O)NC(=O)NCCCCCCNC(=O)NS(=O)(=O)c2cccc(C)c2)c1`, the IC50 in data set [1] was 0.024 µM; in data set [2], 0.012 µM.

With `O=C(NC[C@H]1CC[C@H](CNC(=O)NS(=O)(=O)c2cccc(Cl)c2)CC1)NS(=O)(=O)c1cccc(Cl)c1`, the IC50 in data set [1] was determined as 0.028 µM; in data set [2], 0.016 µM.

Take `Cc1cccc(S(=O)(=O)NC(=O)NCCCCCCCNC(=O)NS(=O)(=O)c2cccc(C)c2)c1`: the 50% inhibitory concentration (IC50) in data set [1] stood at 0.012 µM; in data set [2], 0.005 µM. Further, the bioavailability in data set [5] was 100%. The half-life in data set [6] is 3 h.

`Cc1cccc(S(=O)(=O)NC(=O)NCCC#CCCNC(=O)NS(=O)(=O)c2cccc(C)c2)c1`: the IC50 turned out to be 0.095 µM in data set [1] and 0.012 µM in data set [2].

For `Cc1cccc(S(=O)(=O)NC(=O)NCCCCNC(=O)NS(=O)(=O)c2cccc(C)c2)c1`, the IC50 came out at 3.4 µM in data set [1] and 0.542 µM in data set [2].

Take `O=C(NCc1ccc(CNC(=O)NS(=O)(=O)c2cccc(Cl)c2)cc1)NS(=O)(=O)c1cccc(Cl)c1`: the figures for the IC50 in data set [1] and in data set [2] were 0.006 µM and 0.004 µM, respectively.

With `CCCNC(=O)NS(=O)(=O)c1cccc(C)c1`, the IC50 in data set [1] is > 1000 µM; in data set [2] it was 320 µM.

For `O=C(NCCCNCCCNC(=O)NS(=O)(=O)c1cccc(Cl)c1)NS(=O)(=O)c1cccc(Cl)c1`, the IC50 in data set [1] is 43.8 µM; in data set [2], 13.7 µM.

Consider `Cc1cccc(S(=O)(=O)NC(=O)NCc2ccc(CNC(=O)NS(=O)(=O)c3cccc(C)c3)cc2)c1`, for which the IC50 amounted to 0.003 µM in data set [1] and 0.002 µM in data set [2].

As to `CSCCNC(=O)NS(=O)(=O)c1cccc(Cl)c1`, the values for the half-inhibitory concentration (IC50) in data set [1] and in data set [2] were 515 µM and 277 µM, respectively.

As for `O=C(NCCCCCCNC(=O)NS(=O)(=O)c1cccc(Cl)c1)NS(=O)(=O)c1cccc(Cl)c1`, the IC50 in data set [2] came out at 0.008 µM. This compound also showed a pKa in data set [3] of 5.35. For the same compound, the logD in data set [4] is -0.93. Further, in data set [7], the bioavailability is 108%. The compound further showed a half-life in data set [8] of 1.83 h.

Take `Cc1cccc(S(=O)(=O)NC(=O)NCCOCCNC(=O)NS(=O)(=O)c2cccc(C)c2)c1`: the IC50 in data set [1] turned out to be 0.827 µM; in data set [2], 0.151 µM.

With `O=C(NCCCOCCCNC(=O)NS(=O)(=O)c1cccc(Cl)c1)NS(=O)(=O)c1cccc(Cl)c1`, the figures for the IC50 in data set [1] and in data set [2] were 0.125 µM and 0.057 µM, respectively.

For the compound `Cc1cccc(S(=O)(=O)NC(=O)NCCSSCCNC(=O)NS(=O)(=O)c2cccc(C)c2)c1`, the IC50 in data set [1] was 0.029 µM; in data set [2] it was 0.012 µM.
